“Also recorded” adds a separate entry of the source.
Assays:
[1] = system: IH-1 multiple myeloma cells; experiment: CellTiter-Glo cell viability assay, IH-1; type: cell-based, human; details: IH-1, 10 μM, 48 h
Method: (§1) Minor effects on the proliferation of the IH-1 and RPMI 8226 cell lines are seen. Cells were seeded at the level shown (left-hand bar of each set) then incubated in medium containing water, 10 μM penetratin or 10 μM P7-A4-Pen for 48 hr (except for INA-6 cells, which were incubated with 12.5 μM penetratin or 12.5 μM P7-A4-Pen). The number of viable cells was detected based on quantitation of ATP by luminescent signal in correlation to a standard curve prepared for each cell line. Results are based on 3-5 biological replicates for each condition, error bars show standard deviation of mean.
(§2) Multiple myeloma cells JJN-3 (DSMZ (Germany) no. ACC 541), ANBL-6 (Cellosaurus accession number CVCL_5425, obtained from Dr Diane Jelinek, Mayo Clinic, Rochester, Minn.), INA-6 (Cellosaurus accession number CVCL_5209, obtained from Dr M. Gramatzki, University of Erlangen-Nurnberg, Erlangen, Germany), RPMI-8226 (ATCC CCL-155), and IH-1 (Cellosaurus accession number CVCL_WZ44, established from the pleural effusion of a myeloma patient by Myeloma research group, IKOM, NTNU, Trondheim, Norway) were grown in RPMI-1640 (Sigma-Aldrich Norway, Oslo, Norway) supplemented with 100 nM penicillin/streptomycin and 10% FCS, and for ANBL-6, IH-1 and INA-6 cells 2 ng/ml recombinant IL-6 (Gibco, Thermo Fisher Scientific, Waltham, Mass., USA). […]

[2] = system: INA-6 multiple myeloma cells; experiment: CellTiter-Glo cell viability assay, INA-6; type: cell-based, human; details: INA-6, 12.5 μM, 48 h
Method: as §1, §2

[3] = system: caspase-3; experiment: Western blot for cleaved caspase-3 in JJN-3 cells; type: cell-based, human; details: JJN-3, 10 μM, 24 or 48 h
Method: JJN-3 cells were cultured for 24 or 48 hours with a control peptide (penetratin) or P7-A4-Pen, both at 10 μM. Cells were then lysed and lysates analysed by Western blot for cleaved caspase-3. Presence of cleaved (i.e. activated) caspase-3 is an indicator of apoptotic pathway activation. Cleaved caspase 3 was detected at high levels in the cells treated with P7-A4-Pen for 24 or 48 hours, and only at much lower levels in the cells treated with the control peptide. β-tubulin was detected as a loading control.
To investigate the mechanism of cytotoxicity mediated by the anti-proliferative peptides of the invention, the effect of the peptide P7-A4-Pen on caspase-3 activation in JJN-3 multiple myeloma cells was investigated. Caspase-3 is a pro-apoptotic caspase which is activated by cleavage by upstream caspases 8, 9 and 10 in response to cell death stimuli. Activated, cleaved caspase-3 cleaves and activates caspases 6 and 7, which induce apoptosis. JJN-3 multiple myeloma cells were incubated with 10 μM P7-A4-Pen or Penetratin control for 24 or 48 hours, lysed and analysed by Western blot to investigate caspase-3 activation (by blotting cleaved caspase-3).

[4] = system: S. aureus particles; experiment: Whole blood assay, S. aureus particle stimulation; type: cell-based, human; details: 20 μM, 4 h
Method: Whole blood samples from healthy donors were pre-treated with 20 μM peptides for 1 h then stimulated with TLR ligands for 4 h before plasma collection. Results are for at least 6 donors. The Wilcoxon matched-pairs signed rank test was used for statistical analysis between 2 groups in Prizm 8.2.1. In each graph, circles indicate whole blood pre-treated with water, squares indicate blood pre-treated with control peptide (average for treatment with Pen and C3-Pen), and triangles indicate pre-treatment with P7-Pen.
To evaluate the effect of peptides in an ex vivo system, a human whole blood model was used. Peripheral venous blood was drawn from 6 healthy donors into sterile polypropylene tubes (Thermo Scientific™ Nunc™ Biobanking and Cell Culture Cryogenic Tubes) containing the anti-coagulant Lepirudin (Refludan®; Celgene). Peptide solutions were made by diluting peptide stocks in DPBS (Dulbecco's Phosphate Buffered Saline with MgCl2 and CaCl2; Sigma-Aldrich) to obtain a final concentration of 140 μM. Peptide solution or DPBS was distributed in equal volume (50 μL) to 1.8 mL sterile polypropylene tubes (Thermo Scientific™Nunc™ Biobanking and Cell Culture Cryogenic Tubes). 250 μL whole blood was then added to the 1.8 mL tubes containing peptide solution or DPBS, and incubated at 37° C. under constant rotation for 1 h (concentration of peptides for pre-incubation: 23.3 μM). […]

[5] = system: THP-1 cells; experiment: LDH cytotoxicity assay in THP-1 cells; details: 1 h pre-treatment
Method: For every assay, separate wells were seeded for the required controls (Spontaneous LDH Release Controls and Maximum LDH Release Control) with the same amount of cells as used for peptide treatments. All supernatants were analysed in triplicate with the average value of technical replicates taken into calculations.
THP-1 cells were pre-treated with increasing concentrations of P7-Arg11 and control peptide Arg11 for 1 h (FIG. 3).

## Ac-ITVAASVTLTGRQIKIWFQNRRMKWKK-NH2 [Peptide P7-A4-Pen]
[1]
  cell proliferation: Minor effects; also recorded: inhibited cell proliferation
[2]
  cell proliferation: strongly inhibited cell proliferation
[3]
  caspase-3 cleavage: strongly stimulates

## Ac-ITVYASVTLTGRQIKIWFQNRRMKWKK-NH2 [Peptide P7-Pen]
[4]
  S. aureus-mediated IFNβ secretion: significantly downregulated
  S. aureus-mediated TNF, IL-6 and IL-1β pro-inflammatory cytokine secretion: significantly decreased

## Ac-ITVYASVTLTGRRRRRRRRRRR-NH2 [Peptide P7-Arg11]
[5]; 5 μM and 10 μM
  toxicity (LDH assay): essentially non-toxic
[5]; 20 μM
  toxicity (LDH assay): increased toxicity
